Values joined by “and” are separate entries in the source; they are usually repeats but may differ in a detail not shown here. Equal entries are not always repeated.

In series [1] the test system is HIV transcripts (TAR, LLTR, Pol, PolyA, TatRev). Description: Latency reversal assay: cell-associated HIV transcripts (RT-ddPCR) 24 hours after anti-CD3/CD28 activation of PBMCs from ART-suppressed PWH. Particulars: for Pol HIV transcripts (DMSO αCD3/28 = 100) / PolyA HIV transcripts (DMSO αCD3/28 = 100) / TatRev HIV transcripts (DMSO αCD3/28 = 100): αCD3/28-activated, ruxolitinib 4μM, triptolide 25-50nM, alvocidib 40nM, dinaciclib 8nM, AZD4573 8nM, quercetin 5μM, pladienolide B 10nM, isoginkgetin 25μM, herboxidiene 5nM, KRIBB11 2.5μM, tanespimycin 5μM, mithramycin A 25nM; for PolyA/LLTR / TatRev/PolyA / LLTR/TAR: DMSO+CD3/28 = 1, Fig 3B, C and D; for PolyA / TatRev: DMSO+αCD3/28 = 100, Fig 3A; for Effect on HIV transcripts in the initial drug screen (in words): 24 hours after activation. In kind it is cell-based. Further details: key to TatRev: % of activated DMSO control, normalized to 1 μg total RNA; Elongated (LLTR) HIV transcripts, median relative to activated DMSO, initial screening / Midtranscribed (Pol) HIV transcripts, median relative to activated DMSO, initial screening / Multiply spliced (TatRev) HIV transcripts, median relative to activated DMSO, initial screening: concentration or dose not given beside the values. The procedure: We selected 26 small molecules targeting pathways implicated in HIV transcription or the blocks to HIV transcription underlying latency (Supplemental Table 1). […] Initial screening of all drugs was performed in freshly isolated PBMCs from 2 ART-suppressed individuals (Figure 1 and Supplemental Figure 2). PBMCs were cultured in the presence of individual drugs in DMSO or DMSO alone as a control, subsequently activated (anti-CD3/CD28), and harvested after 24 hours. […] The progression through different blocks to HIV transcription was quantified by measuring the levels of initiated (TAR), 5′ elongated (LLTR), midtranscribed/unspliced (Pol), completed (PolyA), and multiply spliced (TatRev) HIV transcripts. The levels of those HIV transcripts were normalized to 1 μg of total cellular RNA (to normalize for the effect of the drug on global cellular transcription) and expressed as a percentage of the activated DMSO control.
(§1) Figure 1 Screening of candidate LPAs by measuring the change in multiply spliced HIV transcripts after activation. Each drug was tested in PBMCs from 2 ART-suppressed study participants (denoted in the legend by varying symbol shapes). PBMCs were aliquoted into wells at 6 × 10^6 cells/well. After activation, the cells were cultured with antiretrovirals in the presence of individual drugs in DMSO or DMSO alone as control. All conditions were tested in the presence of CD3/28 T cell–activating beads, except for the unactivated DMSO condition. (A) After 24 hours, the viability was measured by trypan blue staining and then normalized to the levels of the activated DMSO (% of activated DMSO). Bars indicate medians. (B) Total cellular RNA was extracted, and the levels of multiply spliced HIV transcripts (TatRev) were measured by RT-ddPCR, normalized to 1 μg of total cellular RNA, and expressed as a percentage of the activated DMSO control (% of activated DMSO). RT-dd, reverse transcription digital droplet; vRNA, viral RNA; HAT, histone acetyltransferase.
The ability of our candidate LPAs to inhibit HIV transcriptional progression after activation was examined in PBMCs from a minimum of 7 PWH per drug tested (Figure 3). PBMCs were cultured in the presence of individual drugs in DMSO or in DMSO alone as a control, subsequently activated (anti-CD3/CD28), and harvested after 24 hours.
Each drug was tested in PBMCs from 7 ART-suppressed study participants. The PBMCs were aliquoted into wells at 6 × 10^6 cells/well. After activation, the cells were cultured with antiretrovirals in the presence of individual drugs in DMSO or DMSO alone as control. All conditions were tested in the presence of CD3/28 T cell–activating beads, except for the unactivated DMSO condition. After 24 hours, total RNA was extracted, and the progression through different stages of HIV transcription was quantified by measuring the levels of initiated (TAR), 5′ elongated (LLTR), midtranscribed/unspliced (Pol), completed (PolyA), and multiply spliced (TatRev) HIV transcripts. (A) The levels of all HIV transcripts were normalized to 1 μg of total cellular RNA and expressed as a percentage of the activated DMSO control (% of activated DMSO). Medians are shown as well as the individual values per study participant in different colors. (B–D) The effect of each drug on HIV transcriptional progression after activation was analyzed by the ratio of one HIV transcript to another. Ratios are independent of HIV infection frequency or normalization to cell numbers. Shown are the proportion of (B) all HIV transcripts that were elongated (LLTR/TAR), (C) elongated HIV transcripts that were completed spliced (PolyA/LLTR), and (D) completed transcripts that were multiply spliced (TatRev/PolyA).

For a further series, the system named is PBMCs. Description: Cell viability by trypan blue staining after 24 hours. Format: cell-based, human. The procedure: as §1
For quantification of cell-associated HIV transcripts, PBMCs were harvested either after 24 hours or after 6 days. The cell viabilities were measured by trypan blue staining; then the cells were pelleted by centrifuging at 300g for 6 minutes and stored at –80°C. For quantification of virion-associated HIV RNA, cell culture supernatant was collected from 6 × 10^6 PBMCs that were treated and activated for 6 days as described above. Residual cells and cellular debris were subsequently removed from the supernatant by differential centrifugation (300g for 6 minutes, then 20,000g for 10 minutes), and the supernatant was stored at –80°C.

Where [2] appears, read: 2.5μM, 24 h after αCD3/28 activation, each column one participant.
The mark [3] stands for this setting: initial screening, 2 participants, 24 hours, Supplemental Figure 2.

Take `CNc1ccc([N+](=O)[O-])c(Nc2ccc3[nH]ncc3c2)n1` [KRIBB11]: the “LLTR HIV transcripts (DMSO+αCD3/28 = 100)” value in series [1] (setting [2]) is 71.02 and 48.35 and 38.5 and 36.33 and 35.09 and 15.92 and 24.32. Also, the “Pol HIV transcripts (DMSO+αCD3/28 = 100)” value in series [1] (setting [2]) was 19.01 and 13.73 and 14.61 and 76.94 and 12.5 and 1.36 and 0. In series [1] (setting [2]), the “TAR HIV transcripts (DMSO+αCD3/28 = 100)” value is 122.57 and 166.06 and 91.93 and 75.64. Further, the “TatRev HIV transcripts (DMSO+αCD3/28 = 100)” value in series [1] (setting [2]) is 11.03 and 9.21 and 38.96 and 12.13 and 2.02 and 0 and 8.77. Besides, the “HIV transcriptional elongation, ratio LLTR/TAR” value in series [1] (24 hours, compared with activated DMSO, Figure 3B) is “inhibited”. In series [1] (24 hours, compared with activated DMSO, Figure 3C), the “HIV transcriptional completion, ratio PolyA/LLTR” value is “reduced completion”. The “Reduction of multiply spliced or completed HIV transcripts in drug screen (selection as candidate LPA)” value in series [1] (initial screening, 2 participants, 24 hours) was “more than 50%”. The “Elongated (LLTR) HIV transcripts, median relative to activated DMSO, initial screening” value in series [1] (setting [3]) is listed as 60%. In series [1] (setting [3]), the “Midtranscribed (Pol) HIV transcripts, median relative to activated DMSO, initial screening” value is 16%. Further, the “Pol HIV transcripts (DMSO αCD3/28 = 100)” value in series [1] (participant 2027) is 73.68; in series [1] (participant 2147a), 33.33; in series [1] (participant 2256) it was 169.23; in series [1] (participant 2747) it was 8.97. Besides, the “PolyA HIV transcripts (DMSO αCD3/28 = 100)” value in series [1] (participant 2027) came to 106.67; in series [1] (participant 2147a) it was 22.8; in series [1] (participant 2256), 89.76; in series [1] (participant 2461), 176.92; in series [1] (participant 2747), 19.67. In addition, the “TatRev HIV transcripts (DMSO αCD3/28 = 100)” value in series [1] (participant 2027) was 11.11; in series [1] (participant 2147a) it was 46.99; in series [1] (participant 2256), 84.19; in series [1] (participant 2747), 30. For the same compound, the “Multiply spliced HIV transcripts (TatRev) (Fig 1B)” value in series [1] (study participant 150a, 24 hours) was 11.03 % of activated DMSO; in series [1] (study participant 152, 24 hours), 9.21 % of activated DMSO. The PolyA/LLTR in series [1] (study participant 150a) came to 0.3562; in series [1] (study participant 152) it was 0.4136; in series [1] (study participant 163) it was 0.6494; in series [1] (study participant 1379), 0.3046; in series [1] (study participant 2147b), 0.5626; in series [1] (study participant 2256) it was 0.2703. Besides, the PolyA/LLTR in series [1] (study participant 5557) is reported as 0.6238. The TatRev/PolyA in series [1] (study participant 150a) worked out at 0.4361; in series [1] (study participant 152) it was 0.4605; in series [1] (study participant 163), 1.558; in series [1] (study participant 1379) it was 0; in series [1] (study participant 2147b) it was 0.4866; in series [1] (study participant 2256), 0.2127. Also, the TatRev/PolyA in series [1] (study participant 5557) amounted to 0.5784. The PolyA in series [1] (study participant 150a) came to 25.3; in series [1] (study participant 152), 20; in series [1] (study participant 163), 25; in series [1] (study participant 1379), 4.85; in series [1] (study participant 2147b), 34.68; in series [1] (study participant 2256), 9.49. Further, the PolyA in series [1] (study participant 5557) turned out to be 15.17. Besides, the TatRev in series [1] (study participant 150a) is 11.03; in series [1] (study participant 152), 9.21; in series [1] (study participant 163), 38.96; in series [1] (study participant 1379) it was 0; in series [1] (study participant 2147b) it was 12.13; in series [1] (study participant 2256), 2.02. Also, in series [1] (study participant 5557), the TatRev was found to be 8.77. Moreover, the LLTR/TAR in series [1] (study participant 1379) is reported as 0.1731; in series [1] (study participant 2147b), 0.3199; in series [1] (study participant 2256), 0.2113; in series [1] (study participant 5557), 0.3215. Further, the “Viability (Fig 1A)” value with PBMCs (study participant 150a) is recorded as 102.97 % of activated DMSO; in the series on PBMCs (study participant 152) it was 101.83 % of activated DMSO.
In the case of `COc1ccc(-c2cc(=O)c3c(O)cc(O)c(-c4cc(-c5cc(=O)c6c(O)cc(O)cc6o5)ccc4OC)c3o2)cc1` [isoginkgetin], in the series on PBMCs (initial screening concentrations, Figure 1A), the “Cell viability (in words)” value is reported as “impact on cell viability”. Moreover, the “Viability (Fig 1A)” value in the series with PBMCs (study participant 150a) is on record as 88.97 % of activated DMSO; in the series on PBMCs (study participant 152), 84.74 % of activated DMSO.
mithramycin A: the “Effect on HIV transcripts in the initial drug screen (in words)” value in series [1] (initial screening, 2 participants) is given as “no effect after 24 hours”; in series [1] (initial screening, 2 participants, listed as Mithramycin A) it was “lack of an effect at 24 hours”.

For the origin of these results see publication PMC11466185, “Mechanisms and efficacy of small molecule latency-promoting agents to inhibit HIV reactivation ex vivo” (JCI Insight, 2024).
